Patent US20200171042A1, “BRAIN-PENETRANT CHROMONE OXIME DERIVATIVE FOR THE THERAPY OF LEVODOPA-INDUCED DYSKINESIA” (Prexton Therapeutics SA, priority 2015, published 2020)

Legend:
[1] = tested on: MPTP macaque model of Parkinson's disease; assay: MPTP macaque model of advanced stages of PD; type: in vivo, Macaca fascicularis
Method: The anti-parkinsonian efficacy of the compound of formula (I) according to the present invention (i.e., PXT002331) was evaluated in the 1-methyl-4-phenyl-1,2,3,6-tetrahydropyridine (MPTP) macaque model of Parkinson's disease (using macaques of the species Macaca fascicularis), which reproduces most of the clinical and pathological hallmarks of Parkinson's disease and is considered a “gold standard” (see Porras G et al., Cold Spring Harb Perspect Med., 2(3):a009308, 2012 and references cited therein for a general description of the MPTP model). […] The anti-parkinsonian efficacy of PXT002331 (25 mg/kg) was further evaluated in combination with low (suboptimal) doses of L-dopa (levodopa; 4-9 mg/kg) (see FIGS. 5B and 5C). In this model, levodopa methyl ester was administered sub-cutaneously together with a fixed dose of benserazide (50 mg total), a peripherally-acting levodopa decarboxylase inhibitor. Doses of PXT002331 were orally administered twice a day during 4 days, and assessment of parkinsonian scores took place at day 4 (between 1 and 2 h after L-dopa administration, i.e., between 2 and 3 h after PXT002331 administration). […] The results of a dose-response evaluation of the combination of PXT002331 (at doses from 2 mg/kg to 100 mg/kg) with L-dopa (low dose) are shown in FIG. 5D (the assessment of parkinsonian scores took place at day 4).

[2] = tested on: CLD MPTP macaque model of early-stage PD; assay: chronic low doses of MPTP (CLD MPTP) macaque model of early-stage PD; type: in vivo, Macaca fascicularis
Method: In this model, levodopa was administered orally as Madopar which contains benserazide hydrochloride (4:1 ratio of levodopa:benserazide), a peripherally-acting levodopa decarboxylase inhibitor. In this experiment, each monkey was equipped with a detector of movements and signals were collected with 24 light beams and a video track recorder in order to discriminate all types of movements. The movements of each monkey were quantified every 5 min using computer-based activity monitors. Total values are presented over 4 hours.

[3] = tested on: CLD MPTP macaque model; assay: Variable Delayed Response (VDR) task, cognitive performance of CLD MPTP monkeys; type: in vivo, Macaca fascicularis
Excerpt: Monkeys that receive chronic low doses of MPTP administration (CLD MPTP macaque model) develop cognitive impairment, as measured in the Variable Delayed Response (VDR) task. It was therefore decided to evaluate the cognitive impact of PXT002331 in these animals, in order to assess potential side effects on cognitive symptoms.

[4] = in vivo pharmacokinetics in rats (plasma and brain exposure); parameters: species or system male Sprague-Dawley rats; settings: rat
Method: PXT002331 and PXT001858 were administered per os (p.o.) at 10 mg/kg to male Sprague-Dawley rats. Volume of administration was 10 ml/kg. In parallel, PXT002331 was also administered intravenously (i.v.) at 1 mg/kg, with a volume of administration of 2 ml/kg. Blood samples (200 μl) were collected at time ranging from 15 minutes to 24 hours for the p.o. administration and from 5 minutes to 24 hours for the i.v. administration in ice-cold tubes containing 0.2% K2EDTA. Tubes were centrifuged at 10,000 rpm for 5 minutes at 4° C. The plasma (supernatant) was separated in another tube and stored at −80° C. until analysis. Two groups of 3 animals were used for each route of administration: in one group, blood samples were collected to determine the kinetics of plasma exposure over a 24-hour period, and in the second group, blood and brain were collected at one terminal time point (0.5, 1.0, 1.5, 2.0, 4.0 hours) to determine the kinetics of brain exposure and brain/plasma ratio.
The respective parent compound (free base) was analysed in plasma samples and in brain homogenate using a LC-MS/MS method. Concentrations are expressed in ng/ml of plasma or in ng/g of brain tissue.

[5] = target: human mGluR4 (Homo sapiens, UniProt Q14833); assay: calcium assay, agonistic and/or positive allosteric modulator activity; type: cell-based; settings: read-out: EC50 (corresponding to pEC50) (converted)
Method: The compound of formula (I) according to the invention (i.e., PXT002331) was tested for its agonistic and/or positive allosteric modulator activity on human mGluR4 using the calcium assay described in Example 171 of WO 2011/051478.

[6] = phase I metabolic stability, CL (h); type: in vitro ADME; settings: human; h of CL (h/r)
Method: (§1) The in vitro ADME profile of PXT002331 was also very similar with reference to phase I metabolic stability: CL (h/r): 55/101 μl/min/mg protein and intestinal absorption: CaCo-2 (A-B, pgp): 4.11 .10-6 cm/s, no efflux.

[7] = phase I metabolic stability, CL (r); type: in vitro ADME; settings: rat; r of CL (h/r)
Method: as §1

[8] = intestinal absorption CaCo-2 (A-B, pgp); type: in vitro ADME; settings: human, Caco-2; A-B
Method: as §1

[9] = tested on: CaCo-2; assay: intestinal absorption CaCo-2 (A-B, pgp); type: in vitro ADME; settings: pgp
Method: as §1

[10] = plasma protein binding; type: in vitro ADME; settings: read-out: plasma protein binding, free fraction
[11] = solubility in water; type: physicochemical; settings: as hydrochloride salt
[12] = tested on: UGT (UDP-Glucuronosyl transferase); assay: in vitro glucuronidation in rat liver microsomes; type: in vitro ADME; settings: in vitro in the presence of UGT
Method: Despite their similar oral absorption, PXT002331 has a higher brain/plasma ratio (6.5 versus 2.0 at T=1.5 h; see FIG. 4) leading to a 3-fold improvement in the brain AUC when compared to PXT001858. A posteriori, one potential hypothesis might rely on the difference of phase II conjugation in the intestine and liver during oral absorption. […] Nonetheless, this difference observed in vitro cannot by itself explain the unexpected advantageous PK results obtained with PXT002331. The results obtained in these experiments are furthermore summarized in Tables 1 to 3 below and in FIGS. 1 to 4.

[13] = tested on: MPTP macaque model of L-DOPA-induced dyskinesia; assay: MPTP macaque model of L-DOPA-induced dyskinesia (LID); type: in vivo
Method: Like PD patients, MPTP macaques experience side effects of their long-term L-DOPA therapy, including L-DOPA-induced dyskinesia (LID). This was the case with the MPTP macaques that were at an advanced stage of parkinsonism used in this experiment. PXT002331 was tested in these monkeys, using the dose of 25 mg/kg in combination with L-DOPA.
Moreover, this was observed as early as day 1, which corresponds to an acute administration of PXT002331, and is maintained after a sub-chronic treatment (twice daily for 8 consecutive days). Importantly, the efficacy of L-DOPA for reducing parkinsonian symptoms (tremor, posture, mobility) was maintained in association with PXT002331 dose, as shown in FIG. 9B.

[14] = tested on: MPTP macaques; assay: general behavior, adverse events in MPTP macaques; type: in vivo, Macaca fascicularis; settings: alone or with L-DOPA, even at high doses
Method: Adverse events and side effects of PXT002331 were analyzed during each study performed in macaques (see Example 3).

[15] = p.o. 10 mg/kg, vehicle Tween-80/Ethanol/30% HPBCD (2/10/88)

Chain of human mGluR4 (Q14833 33-912): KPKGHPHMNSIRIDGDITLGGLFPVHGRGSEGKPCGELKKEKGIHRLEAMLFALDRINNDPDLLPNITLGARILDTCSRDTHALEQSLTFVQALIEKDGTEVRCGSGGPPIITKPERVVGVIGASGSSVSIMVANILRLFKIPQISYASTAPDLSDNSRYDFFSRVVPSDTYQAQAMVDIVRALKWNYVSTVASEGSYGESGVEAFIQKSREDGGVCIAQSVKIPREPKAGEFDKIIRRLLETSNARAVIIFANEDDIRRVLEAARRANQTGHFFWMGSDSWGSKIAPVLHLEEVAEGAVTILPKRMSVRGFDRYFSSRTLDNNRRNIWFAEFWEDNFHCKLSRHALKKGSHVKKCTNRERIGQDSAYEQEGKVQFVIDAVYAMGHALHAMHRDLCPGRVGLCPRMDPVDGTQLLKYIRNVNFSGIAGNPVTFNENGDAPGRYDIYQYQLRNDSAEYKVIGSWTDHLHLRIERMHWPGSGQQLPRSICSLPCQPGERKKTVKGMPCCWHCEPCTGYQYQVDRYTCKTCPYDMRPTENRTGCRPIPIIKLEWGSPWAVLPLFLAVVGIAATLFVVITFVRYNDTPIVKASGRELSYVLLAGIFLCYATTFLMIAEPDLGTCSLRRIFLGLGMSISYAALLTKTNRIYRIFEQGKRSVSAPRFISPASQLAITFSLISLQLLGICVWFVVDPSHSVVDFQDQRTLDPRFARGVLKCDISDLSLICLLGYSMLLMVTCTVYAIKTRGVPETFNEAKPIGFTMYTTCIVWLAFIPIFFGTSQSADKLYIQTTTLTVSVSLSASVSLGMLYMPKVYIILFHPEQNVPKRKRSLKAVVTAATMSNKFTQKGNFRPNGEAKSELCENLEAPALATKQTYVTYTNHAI

**Q.** What does the source list for `N[C@@H](Cc1ccc(O)c(O)c1)C(=O)O` [L-DOPA, L-3,4-dihydroxyphenylalanine, reference compound]?
**A.** dyskinesia (mean dyskinesia score) ([1]; highest doses of L-DOPA): very mild; dyskinesia ([1]; sub-optimal doses of L-DOPA): weak or absent; induction of dyskinesia ([2]; L-DOPA alone, model of early stage PD): did not induce dyskinesia; omissions in VDR task ([3]; one out of four animals, optimal dose of L-DOPA alone): ~100%

**Q.** For `O/N=c1\cc(-c2cc3sccc3cn2)oc2ccc(OCCN3CCOCC3)cc12` [PXT001858, reference compound], which “Brain AUC inf” value ([4]; oral 10 mg/kg) is on record?
**A.** 838 ng·h/g

**Q.** And the “Cmax (Brain)” value ([4]; oral 10 mg/kg)?
**A.** 521 ng/G tissue

**Q.** For `O/N=c1\cc(-c2cc3sccc3cn2)oc2ccc(CCCN3CCOCC3)cc12` [PXT002331, 6-(3-morpholin-4-yl-propyl)-2-(thieno[3,2-c]pyridin-6-yl)-4H-chromen-4-one oxime], which EC50 [5] is on record?
**A.** ~76 nM

**Q.** And the microsomal CLint [6]?
**A.** 55 µL/min/mg

**Q.** And the microsomal CLint [7]?
**A.** 101 µL/min/mg

**Q.** And the Papp A→B [8]?
**A.** 4.11 ×10⁻⁶ cm/s

**Q.** And the CaCo-2 efflux [9]?
**A.** no efflux

**Q.** And the fraction unbound [10]?
**A.** < 0.01

**Q.** What about the solubility [11] of the same compound?
**A.** > 10000 µg/mL

**Q.** What about the Kp at 1.5 h ([4]; male, Sprague-Dawley, brain, oral 10 mg/kg, T = 1.5 h, read-out: Brain/Plasma ratio (T = 1.5 h)) of the same compound?
**A.** 6.5

**Q.** What about the bioavailability ([4]; male, Sprague-Dawley, plasma, oral, p.o. 10 mg/kg vs i.v. 1 mg/kg) of the same compound?
**A.** 39%

**Q.** And the AUC(0-inf) ([4]; male, Sprague-Dawley, plasma, oral 10 mg/kg)?
**A.** 432 ng·h/mL

**Q.** And the “Brain AUC inf” value ([4]; oral 10 mg/kg)?
**A.** 2713 ng·h/g

**Q.** What about the “Cmax (Brain)” value ([4]; oral 10 mg/kg) of the same compound?
**A.** 818 ng/G tissue

**Q.** And the “improvement in brain AUC compared to PXT001858” value ([4]; oral 10 mg/kg)?
**A.** 3 fold

**Q.** And the “plasma exposure AUC relative to PXT001858” value [4, 15]?
**A.** 1.1 fold

**Q.** And the “plasma exposure Cmax relative to PXT001858” value [4, 15]?
**A.** 0.7 fold

**Q.** What about the “level of glucuronidation compared to PXT001858” value [12] of the same compound?
**A.** much lower level of glucuronidation

**Q.** What about the “robustness: monkeys improving in parkinsonian score” value ([1]; PXT002331 25 mg/kg + low dose L-dopa, day 4) of the same compound?
**A.** all treated monkeys showed a significant improvement in parkinsonian score

**Q.** And the “parkinsonian score versus L-dopa (suboptimal dose) alone” value ([1]; PXT002331 25 mg/kg p.o. twice a day 4 days + suboptimal L-dopa 4-9 mg/kg, day 4)?
**A.** considerable improvement in parkinsonian score

**Q.** And the “anti-parkinsonian effect, dose-response evaluation” value ([1]; PXT002331 2 to 100 mg/kg oral + L-dopa (low dose), day 4)?
**A.** highly potent anti-parkinsonian effect

**Q.** What about the induction of dyskinesia ([1]; PXT002331 alone, any of the doses tested, more advanced stages of PD) of the same compound?
**A.** did not induce dyskinesia

**Q.** What about the “change of dyskinesia by PXT002331 treatment” value ([1]; added to sub-optimal doses of L-DOPA, any dose tested) of the same compound?
**A.** not increased

**Q.** What about the “anti-parkinsonian activity (parkinsonian score)” value ([1]; stand-alone treatment, p.o. twice a day for 4 days, score at day 4 over 2 h, n=7) of the same compound?
**A.** potent anti-parkinsonian activity

**Q.** What about the induction of dyskinesia ([2]; CLD MPTP macaques, PXT002331 alone or in combination with any doses of L-DOPA tested) of the same compound?
**A.** no induction of dyskinesia

**Q.** And the “robustness: monkeys responding in locomotor activity” value ([2]; PXT002331 25 mg/kg + L-dopa)?
**A.** each and every monkey included in the study responded

**Q.** And the locomotor activity ([2]; PXT002331 25 mg/kg oral + low or optimal dose of L-dopa (Madopar), total over 4 hours, N=5)?
**A.** significant improvement in locomotor activity

**Q.** What about the induction of dyskinesia ([2]; PXT002331 25 to 100 mg/kg + optimal (high) dose of L-dopa) of the same compound?
**A.** without inducing dyskinesia

**Q.** And the disability score ([2]; increasing doses of PXT002331 + L-dopa (optimal dose))?
**A.** improvement in the disability score

**Q.** What about the “worsening of cognitive performances in VDR task” value ([3]; PXT002331 25 mg/kg alone or in combination with L-DOPA, N=4) of the same compound?
**A.** none of the treatments with PXT002331, alone or in combination with L-DOPA, induced any worsening of the cognitive performances

**Q.** And the “omission rate in VDR task, change on adding PXT002331” value ([3]; one out of four animals, PXT002331 25 mg/kg added to optimal dose of L-DOPA)?
**A.** decreased by half

**Q.** What about the “dyskinesia (mean dyskinesia score over 2 hours)” value ([13]; PXT002331 25 mg/kg + L-DOPA, 30 min before or same time, day 1 and day 8 (twice daily)) of the same compound?
**A.** clear reduction of dyskinesia

**Q.** What about the “robustness: dyskinetic monkeys responding” value ([13]; PXT002331 25 mg/kg + L-DOPA, N=4 dyskinetic animals) of the same compound?
**A.** each and every dyskinetic monkey included in the study responded to treatment

**Q.** And the “efficacy of L-DOPA for reducing parkinsonian symptoms (tremor, posture, mobility)” value ([13]; in association with PXT002331 25 mg/kg)?
**A.** maintained

**Q.** What about the “adverse change in behavior (circling, excitement, lethargy, sleepiness)” value [14] of the same compound?
**A.** never induced any apparent adverse change in behavior
